In US9932353B2, “Imidazopyrimidine macrocycles as inhibitors of human immunodeficiency virus replication” (VIIV HEALTHCARE UK (NO. 5) LIMITED, priority 2014, dated 2018) one finds EC50 data, which are given here for three compounds.

Like-named read-outs stand apart in the source and are kept apart here.

The experiment has as its system recombinant NL-RLuc virus (HIV NL4-3 with Renilla Luciferase) in MT-2 cells. In words: Inhibition of HIV replication (NL-RLuc virus in MT-2 cells, luciferase readout). The class given is cell-based. The source says: Inhibition of HIV Replication:
A recombinant NL-RLuc proviral clone was constructed in which a section of the nef gene from NL4-3 was replaced with the Renilla Luciferase gene. This virus is fully infectious and can undergo multiple cycles of replication in cell culture. In addition, the luciferous reporter provides a simple and easy method for quantitating the extent of virus growth and consequently, the antiviral activity of test compounds. The plasmid pNLRLuc contains the proviral NL-Rluc DNA cloned into pUC18 at the PvuII site. The NL-RLuc virus was prepared by transfection of 293T cells with the plasmid pNLRLuc. Transfections were performed using the LipofectAMINE PLUS kit from Invitrogen (Carlsbad, Calif.) according to the manufacturer and the virus generated was titered in MT-2 cells. For susceptibility analyses, the titrated virus was used to infect MT-2 cells in the presence of compound, and after 5 days of incubation, cells were processed and quantitated for virus growth by the amount of expressed luciferase. Assay media was RPMI 1640 supplemented with 10% heat inactivated fetal bovine serum (FBS), 100 units/ml penicillin G/100 units/ml streptomycin, 10 mM HEPES buffer pH 7.55 and 2 mM L-glutamine. The results from at least 2 experiments were used to calculate the EC50 values. Luciferase was quantitated using the Dual Luciferase kit from Promega (Madison, Wis.). Susceptibility of viruses to compounds was determined by incubation in the presence of serial dilutions of the compound. The 50% effective concentration (EC50) was calculated by using the exponential form of the median effect equation where (Fa)=1/[1+(ED50/drug conc.)^m] (Johnson V A, Byington R T. Infectivity Assay. In Techniques in HIV Research. ed. Aldovini A, Walker B D. 71-76. New York: Stockton Press. 1990).

Setting [1] is: NL-RLuc virus, MT-2 cells, 5 days of incubation, 10% FBS, luciferase, read-out: EC50.

As usually defined, the EC50 is the concentration needed to bring the measured effect to its halfway point. With `Cc1nc2nc3cn2c(c1[C@H](OC(C)(C)C)C(=O)O)N1CCC(C)(CC1)OCCCCC(C)Oc1ccc(F)cc1-c1cccc-3c1` (stereo partly drawn) [Example 2, (2S)-2-(tert-butoxy)-2-[(22S/R)-17-fluoro-4,22,28-trimethyl-21,27-dioxa-1,5,7,34-tetraazahexacyclo[26.2.2.1^6,^9.1^10,^14.0^2,^7.0^15,^20]tetratriaconta-2,4,6(34),8,10(33),11,13,15(20),16,18-decaen-3-yl]acetic Acid], under setting [1], the EC50 was found to be 8 nM.

As to “(2S)-2-(tert-butoxy)-2-[(22S/R)-17-fluoro-4,22,28-trimethyl-21,27-dioxa-1,5,7,34-tetraazahexacyclo[26.2.2.1^6,^9.1^10,^14.0^2,^7.0^15,^20]tetratriaconta-2,4,6(34),8,10(33),11,13,15(20),16,18-decaen-3-yl]acetic Acid [Example 3]”, the 50% effective concentration (EC50) under setting [1] was 77 nM.

Regarding `Cc1ccc2c(c1)-c1cccc(c1)-c1cn3c(c([C@H](OC(C)(C)C)C(=O)O)c(C)nc3n1)N1CCC(C)(CC1)OCCCC[C@H](C)O2` [Example 1, (2S)-2-(tert-Butoxy)-2-[(22S)-4,17,22,28-tetramethyl-21,27-dioxa-1,5,7,34-tetraazahexacyclo[26.2.2.1^6,^9.1^10,^14.0^2,^7.0^15,^20]tetratriaconta-2,4,6(34),8,10(33),11,13,15(20),16,18-decaen-3-yl]acetic Acid], the EC50 (MT2, 120 h) was determined as 8 nM.
